In brackets after ≈: the same amount, converted by molar mass. Several values for one entry are separate records, joined by “and”; a condition that tells them apart may be missing. Identical values can stand only once. Like-named read-outs stand apart in the source and are kept apart here.
Columns and labels:
[1] = tested on: Mycobacterium tuberculosis H37Rv; test: Minimal inhibitory concentration (Etest); format: cell-based, Mycobacterium tuberculosis H37Rv (ATCC 27294)
Text: Mycobacterium tuberculosis H37Rv (ATCC 27294, SRI #1345) was maintained on Middlebrook 7H1O agar slants, containing 0.5% glycerol and 10% OADC (Difco).

[2] = tested on: Mycobacterium tuberculosis; test: MIC for rifampicin, tuberculosis in primates
M. tuberculosis H37Rv [3] = conditions: free drug, all three concentrations (0.25, 0.75, 2.0 μg/ml)
M. tuberculosis H37Rv [4] = conditions: free rifampicin, all concentrations
M. tuberculosis H37Rv [5] = conditions: for log10 CFU: individual mice; for log10 CFU / Mean log10 CFU: day 26

Question: How did the MIC [1] turn out when `CO[C@H]1/C=C/O[C@@]2(C)Oc3c(C)c(O)c4c(O)c(c(/C=N/N5CCN(C)CC5)c(O)c4c3C2=O)NC(=O)/C(C)=C\C=C\[C@H](C)[C@H](O)[C@@H](C)[C@@H](O)[C@@H](C)[C@H](OC(C)=O)[C@@H]1C` [Rifampicin] was run?
Answer: Its MIC is 0.06 to 0.25 µg/mL (≈ 0.0729 to 0.304 µM).

Question: And the MIC ([1]; Etest, read-out: minimal inhibitory concentration (MIC))?
Answer: Its MIC is 0.06 to 0.25 µg/mL (≈ 0.0729 to 0.304 µM).

Question: And the MIC [2]?
Answer: The MIC was 0.06 to 0.25 µg/mL (≈ 0.0729 to 0.304 µM).

Question: And the “reduction in CFUs, J774” value (M. tuberculosis H37Rv [3])?
Answer: The value was “significant reduction in CFUs”.

Question: And the “reduction of CFUs, MM6” value (M. tuberculosis H37Rv [4])?
Answer: Its value is “significant reduction of CFUs”.

Question: What about the “log10 CFU” value (M. tuberculosis H37Rv [5]; oral 0.42 mg/kg daily, 0.42 mg/kg) of the same molecule?
Answer: Its value is 5.86 log10 CFU and 5.66 log10 CFU and 5.59 log10 CFU and 5.72 log10 CFU and 5.95 log10 CFU and 5.88 log10 CFU and 5.7 log10 CFU and 6.15 log10 CFU.

Question: And the “Mean log10 CFU” value (M. tuberculosis H37Rv [5]; oral 0.42 mg/kg daily)?
Answer: Its value is 5.62 log10 CFU.

Question: And the “log10 CFU” value (M. tuberculosis H37Rv [5]; oral 1.25 mg/kg daily, 1.25 mg/kg)?
Answer: Its value is 5.97 log10 CFU and 5.71 log10 CFU and 5.69 log10 CFU and 5.64 log10 CFU and 5.47 log10 CFU and 5.44 log10 CFU and 5.62 log10 CFU and 5.88 log10 CFU and 5.72 log10 CFU.

Question: And the “Mean log10 CFU” value (M. tuberculosis H37Rv [5]; oral 1.25 mg/kg daily)?
Answer: Its value is 5.68 log10 CFU.

Question: What about the “log10 CFU” value (M. tuberculosis H37Rv [5]; oral 5.0 mg/kg daily, 5 mg/kg) of the same molecule?
Answer: Its value is 5.45 log10 CFU and 5.31 log10 CFU and 5.10 log10 CFU and 5.43 log10 CFU and 5.06 log10 CFU and 5.18 log10 CFU and 5.20 log10 CFU and 5.51 log10 CFU and 5.32 log10 CFU.

Question: And the “Mean log10 CFU” value (M. tuberculosis H37Rv [5]; oral 5.0 mg/kg daily)?
Answer: Its value is 5.27 log10 CFU.

Question: And the “log10 CFU” value (M. tuberculosis H37Rv [5]; oral 10 mg/kg daily, 10 mg/kg)?
Answer: The value was 4.27 log10 CFU and 4.72 log10 CFU and 4.15 log10 CFU and 4.00 log10 CFU and 3.48 log10 CFU and 4.54 log10 CFU and 3.30 log10 CFU and 3.00 log10 CFU and 4.48 log10 CFU.

Question: What about the “Mean log10 CFU” value (M. tuberculosis H37Rv [5]; oral 10 mg/kg daily) of the same molecule?
Answer: The value was 3.99 log10 CFU.

Question: And the “reductions in viable M. tuberculosis H37Rv” value (M. tuberculosis H37Rv [5]; oral 5.0 and 10 mg/kg, 26 days post-infection)?
Answer: Its value is “significant reductions”.
